Test system: participants with SSc-RP
Assay: Frequency of weekly RP attacks (all attacks; primary endpoint), patient diary
Format: in vivo, human
Conditions: ITT Part A
From the text: Percent change from baseline evaluation for frequency of weekly RP attacks were or will be used as the primary efficacy variable. The sponsor-developed participant-informed diary will be used to record data. Frequency of weekly RP attacks is defined as the total number of RP attacks divided by the number of days with available diary data within the last 7 days of each dosing period then multiplied by 7. Total number of RP attacks during the last 7 days of screening period divided by the number of days with available data then multiplied by 7 will be used as baseline for the analysis of all periods. The variable will be calculated as follows: […]
Percent change from baseline evaluation for frequency of weekly RP attacks was and will be the primary efficacy endpoint. Frequency of weekly RP attacks is defined as the total number of RP attacks divided by the number of days with available diary data within the last 7 days of each dosing period then multiplied by 7. Total number of RP attacks during the last 7 days of screening period divided by the number of days with available data then multiplied by 7 will be used as baseline for the analysis of all periods.

[1] = Tadalafil 5 mg, Baseline RCS stratum 2 (lower half of table)
[2] = tadalafil 5 mg daily, n=1, excluding outliers, last 7 days of dosing
[3] = tadalafil 5 mg daily, n=2, last 7 days of dosing

CN1CC(=O)N2[C@H](c3ccc4c(c3)OCO4)c3[nH]c4ccccc4c3C[C@@H]2C1=O [Tadalafil]
19.00: Weekly RP Attacks (All Attacks), Mean [2] | Weekly RP Attacks (All Attacks), Median [2]
13.00: Weekly RP Attacks (All Attacks), Mean [1] | Weekly RP Attacks (All Attacks), Median [1] | Weekly RP Attacks (All Attacks), Mean [3] | Weekly RP Attacks (All Attacks), Median [3]
6.00: Weekly RP Attacks (All Attacks) Change from Baseline, Mean [2] | Weekly RP Attacks (All Attacks) Change from Baseline, Median [2]
3.00: Weekly RP Attacks (All Attacks) Change from Baseline, Mean [1] | Weekly RP Attacks (All Attacks) Change from Baseline, Median [1] | Weekly RP Attacks (All Attacks) Change from Baseline, Mean [3] | Weekly RP Attacks (All Attacks) Change from Baseline, Median [3]

Source: patent US20240358692A1, “TREATMENT OF SCLERODERMA” (Aisa Pharma, Inc., priority 2023, published 2024)
